Laboratory results published in patent US5047404A, “Chemical compounds” (Smith Kline & French Laboratories, Ltd., priority 1988, dated 1991).

Legend:
[1] = system: hindquarter vascular resistance; assay: Vasodilatation in vivo: hindquarter blood flow, perfused hind quarters; parameters: species or system rats (male Wistar); settings: anaesthetised rats; bolus i.v., 10 μmol/kg
Method: Male Wistar rats (300 g) were anaesthetised with a sodium 5-ethyl-5-(I-methylpropyl)-2-thiobarbiturate/sodium pentobarbitone mixture i.p. (62.5 and 22.5 mg/kg respectively). The trachea was cannulated and the rats breathed spontaneously air enriched with O2 (5 ml/min). Blood pressure was recorded from a carotid artery and a jugular vein was cannulated for the administration of compounds. The temperature of the animal was maintained at 37° C. by the use of an electric blanket. […] The perfusion circuit was primed with 5% bovine serum albumin dissolved in 0.9% sodium chloride solution, pH adjusted to 7.4. Initially the pump rate was set between 10 and 15 ml/min to match the hind quarter perfusion pressure to that of the systemic circulation. Once set, the pressure remained unaltered for the rest of the experiment. A change in the speed of the pump (equivalent to hindquarter blood flow) was used to assess the changes in hindquarter vascular resistance.

[2] = biological target: calmodulin insensitive cyclic GMP phosphodiesterase (Homo sapiens, UniProt O76074); assay: Phosphodiesterase activity: inhibition of calmodulin insensitive cyclic GMP phosphodiesterase; type: biochemical; settings: procedure of European Patent Application No. 293063; read-out: IC50 (concentration of inhibitor required for 50% inhibition of enzyme activity)
[3] = system: ovalbumen-induced bronchoconstrictor response; assay: Anti-allergic activity: ovalbumen-induced bronchoconstrictor response in sensitised guinea-pigs; type: in vivo, guinea-pigs (male Duncan Hartley); settings: dose 28 μmol/kg i.v. bolus, ovalbumen 1 mg.kg^-1 i.v. challenge 30 min after drug
Method: Male Duncan Hartley guinea-pigs (250-300 g) were sensitised to ovalbumen by i.p. injection of 2 ml of 50 mg.ml^-1 i.p. and 0.2 ml s.c. Three weeks later they were anaesthetised with 60 mg.kg^-1 sodium pentabarbitone. The trachea was cannulated and the animal respired at a rate of 40 breaths per minute and at an initial tracheal inflation pressure of 16 mmHg. Tracheal inflation pressure was measured by a transducer connected to a side arm of the respiration circuit. The carotid artery was cannulated for the measurement of blood pressure and the signal was used to trigger an instantaneous rate meter. A jugular vein was cannulated for the administration of drug and allergen. After surgery the animals were allowed to stabilise and the drug was administered i.v. as a bolus. Following this, ovalbumen 1 mg.kg^-1 was injected i.v. as the antigen challenge either 2, 15 or 30 minutes following drug treatment and the peak bronchoconstrictor response recorded. For the control group ovalbumen only was given. One ovalbumen challenge per guinea-pig was used and n=6 for each time point. The percentage increase in tracheal inflation pressure was calculated. The following results indicating an anti-allergic activity were obtained.

SMILES | IC50 [2] [µM] | also measured
CCCOc1ccccc1-c1nc2nc(SC)nnc2c(=O)[nH]1 [Example 12, 3-Methylthio-8-oxo 6-(2-propoxyphenyl)-7,8-dihydropyrimido[4,5-e][1,2,4]triazine] | – | increase in hindquarter blood flow [1]: 38%
CCCOc1ccccc1-c1nc2[nH]c(=O)c(=O)[nH]c2c(=O)[nH]1 [Example 7, 2-(2-Propoxyphenyl)pteridin-4,6,7(3H,5H,8H)-trione] | 0.55 to 11.4 | –
CCCOc1ccccc1-c1nc2ncc(=O)[nH]c2c(=O)[nH]1 [Example 6, 2-(2-Propoxyphenyl)pteridin-4,6(3H,5H)-dione] | 0.55 to 11.4 | –
CCCOc1ccccc1-c1nc2ncccc2c(=O)[nH]1 [Example 1, 2-(2-Propoxyphenyl)pyrido[2,3-d]pyrimid-4(3H)-one] | – | % Inhibition of Control Bronchoconstrictor Response 30 min after drug administration [3]: 9%

Now from value to compound, other results behind:

IC50 [2] [µM] | SMILES | also measured
0.55 to 11.4 | CCCOc1ccccc1-c1nc2nnc(OC)nc2c(=O)[nH]1 [Example 11, 3-Methoxy-5,6-dihydro-5-oxo-7-(2-propoxyphenyl)pyrimido[5,4-e][1,2,4]triazine] | –
0.55 to 11.4 | CCCOc1ccccc1-c1nc2nnc(NC)nc2c(=O)[nH]1 [Example 10, 3-Methylamino-5,6-dihydro-5-oxo-7-(2-propoxyphenyl)pyrimido[5,4-e][1,2,4]triazine] | –
